Test results reported in patent publication US20110136839A1, “COMBINATION OF TWO ANALGESIC CHEMICALS” (priority 2009, published 2011).
“Also recorded” adds a separate entry of the source.

How the values were obtained:
[1] = Animal study of blood pressure and heart rate; type: in vivo; conditions: subcutaneous injection at 0.5 mg/kg
neuropathic pain (SNL) = assay: Neuropathic pain model (spinal nerve ligation), thermal threshold of the hindpaw; type: in vivo, rat
Experimental: PWL responding to heat stimulus ipsilaterally was measured.
Paw withdrawal latency was measured.

[2] = system: carrageenan-evoked hyperalgesia; assay: Carrageenan model of inflammation, thermal hyperalgesia (paw withdrawal latency); type: in vivo; conditions: rat; for effect on thermal hyperalgesia in carrageenan model (paw withdrawal latency): subcutaneous (systemic) injection 1 hour after carrageenan; for effect on inflammatory hyperalgesia at higher dose (FIG. 7D): subcutaneous injection at 1 hour, doses higher than those in FIG. 7C
[3] = system: carrageenan-evoked hyperalgesia; assay: as above; type: in vivo; conditions: rat; for reversal of the hypoalgesia by naloxone (opioid receptor antagonist): drug i.pl. at 1 hour, naloxone chloride or naloxone methiodide s.c. at 24 hours after carrageenan; for effect on carrageenan-evoked thermal hyperalgesia (paw withdrawal latency): intraplantar (local) injection in the inflamed paw 1 hour after carrageenan
Experimental: Rats received a subcutaneous injection of carrageenan (2% in saline, 100 μl) in the right hindpaw (intraplantar injection). Drug or vehicle were administered intraplantarly (i.pl., 50 μl) 1 hour after carrageenan injection and behavioral testing was performed at various time points. Nociceptive threshold responding to heat was determined as described before (Williams et al., 1990; Wisden et al., 1990: Jiang et al., 2006). Briefly, rat was placed in a device that held the body without restraining the head and legs. Noxious heat stimulation was carried out by immersing the hindpaw up to the ankle joint into a slowly stirred water bath at 47.5° C. while holding the animal with the device. […] Paw withdrawal latency for any test time point was measured twice at 3-min intervals and the mean values were calculated. Baseline latency was measured 10 min before drug or vehicle administration.
Effects of ketanserin on carrageenan-evoked hyperalgesia are illustrated in FIG. 1. Paw withdrawal latencies in seconds were measured in plantar test at the various time points. Data were normalized as percentage of pretreatment baseline (100%) and expressed as the mean ±SEM (standard error of mean).
Paw withdrawal latencies in seconds were determined in plantar test at the various time points. Data were normalized as percentage of pretreatment baseline (100%) and expressed as the mean ±SEM. Carrageenan and ketanserin (20 μg) were given i.pl. into unilateral hindpaw at 0 and 1 hour, respectively.
Paw withdrawal latencies in seconds were examined at the various time points. Data were normalized as percentage of pretreatment baseline (100%) and expressed as the mean ±SEM.
Carrageenan and […] (30 μg) were given i.pl. into unilateral hindpaw at 0 and 1 hour, respectively. Then naloxone chloride (5 mg/ml/kg) or naloxone methiodide (10 mg/ml/kg) or saline (1 ml/kg) was injected s.c. (subcutaneous injection) at 24hours after carrageenan. Paw withdrawal latencies in seconds were measured at the various time points.
Carrageenan (2%, 100 μl) was administered i.pl. at 0 hour and saline (50 μl, i.pl.) or ketanserin (2 μg, i.pl.)+WAY100635 (3 μg, i.pl.) at 1 hour. The results are illustrated in FIG. 5. Paw withdrawal latencies in seconds were examined at the various time points.
Carrageenan model—See those described before.

Compound | blood pressure [1] | heart rate [1] | tolerance (neuropathic pain (SNL); rat neuropathic pain model, thermal, s.c. injection) | thermal nociceptive threshold in Chung's model of neuropathic pain (paw withdrawal latency) (neuropathic pain (SNL); rat, s.c. starting at day 4 after spinal nerve ligation) | effect on thermal hyperalgesia in carrageenan model (paw withdrawal latency) [2] | effect on inflammatory hyperalgesia at higher dose (FIG. 7D) [2] | reversal of the hypoalgesia by naloxone (opioid receptor antagonist) [3] | reversal of the hypoalgesia by naloxone (opioid receptor antagonist) ([3]; listed as Ketanserin) | effect on carrageenan-evoked thermal hyperalgesia (paw withdrawal latency) [3]
O=C(c1ccc(F)cc1)C1CCN(CCn2c(=O)[nH]c3ccccc3c2=O)CC1 [ketanserin] | does not alter | does not alter | without tolerance | dose-dependently inhibits | produces significant inhibition on the nociceptive threshold | exerted stronger effect | abolished by i.p. naloxone | mediated by opioid analgesia mechanism | dose-dependently produces hypoalgesia; also recorded: prolonging in paw withdrawal latency
COc1ccccc1N1CCN(CCN(C(=O)C2CCCCC2)c2ccccn2)CC1 [WAY100635] |  |  |  |  |  |  | mediated by opioid analgesia mechanism |  | dose-dependently produces hypoalgesia
COc1cc2nc(N3CCN(C(=O)c4ccco4)CC3)nc(N)c2cc1OC [prazosin] |  |  |  |  |  |  |  |  | failed to alter the carrageenan-evoked response
CC(C)NCC(O)COc1cccc2ccccc12 (stereo not drawn) [propranolol] | does not alter | does not alter |  |  | produces significant inhibition on the nociceptive threshold | exerted stronger effect | abolished by i.p. naloxone |  | prolonging in paw withdrawal latency
